Where “and” joins values, the source holds several entries; their conditions need not be identical. Equal entries are not always repeated. Inconclusive results and toxic doses are left out. The calls were made as follows: active = survival T/C of 150% or more; inactive = T/C below 125% in these data.
Test system: CD2F1 mice, L1210 leukemia ip, survival T/C
Test: NCI In Vivo Anticancer Drug Screen. Data for tumor model L1210 Leukemia (intraperitoneal) in CD2F1 (CDF1) mice
Conditions: higher = longer survival
How it was run: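 Tumor-bearing mice (transplanted tumor) were split into treated and vehicle control groups, and the measured endpoint of each treated group was divided by that of its vehicle controls.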

[1] = endpoint: mean survival time, dose: 50.0 mg/kg/injection, schedule: Q04DX003 (ip), vehicle: saline
[2] = endpoint: mean survival time, dose: 100.0 mg/kg/injection, schedule: Q04DX003 (ip), vehicle: saline
[3] = endpoint: mean survival time, dose: 100.0 mg/kg/injection, schedule: Q01DX009 (ip), vehicle: saline with Tween-80
[4] = endpoint: mean survival time, dose: 200.0 mg/kg/injection, schedule: Q01DX009 (ip), vehicle: saline with Tween-80
[5] = endpoint: mean survival time, dose: 100.0 mg/kg/injection, schedule: Q01DX001 (ip), vehicle: saline with Tween-80
[6] = endpoint: mean survival time, dose: 200.0 mg/kg/injection, schedule: Q01DX001 (ip), vehicle: saline with Tween-80
[7] = endpoint: mean survival time, dose: 400.0 mg/kg/injection, schedule: Q01DX001 (ip), vehicle: saline with Tween-80
[8] = endpoint: mean survival time, dose: 400.0 mg/kg/injection, schedule: Q01DX009 (ip), vehicle: saline with Tween-80
[9] = endpoint: mean survival time, dose: 100.0 mg/kg/injection, schedule: Q04DX003 (ip), vehicle: saline with Tween-80
[10] = endpoint: mean survival time, dose: 200.0 mg/kg/injection, schedule: Q04DX003 (ip), vehicle: saline with Tween-80
[11] = endpoint: mean survival time, dose: 400.0 mg/kg/injection, schedule: Q04DX003 (ip), vehicle: saline with Tween-80
[12] = endpoint: mean survival time, dose: 100.0 mg/kg/injection, schedule: Q04DX003 (ip), vehicle: other
[13] = endpoint: mean survival time, dose: 200.0 mg/kg/injection, schedule: Q04DX003 (ip), vehicle: other

Measured: T/C

c1cc[n+](Cc2nc3ccccc3[nH]2)cc1
inactive: endpoint: mean survival time, dose: 25.0 mg/kg/injection, schedule: Q01DX009 (ip), vehicle: saline 97 % of control and 100 % of control | endpoint: mean survival time, dose: 25.0 mg/kg/injection, schedule: Q04DX003 (ip), vehicle: saline 103 % of control and 100 % of control | endpoint: mean survival time, dose: 50.0 mg/kg/injection, schedule: Q01DX009 (ip), vehicle: saline 100 % of control | [1] 100 % of control and 106 % of control | endpoint: mean survival time, dose: 100.0 mg/kg/injection, schedule: Q01DX009 (ip), vehicle: saline 101 % of control and 97 % of control | [2] 97 % of control and 103 % of control

NNC(=O)c1nc2ccccc2s1
inactive: endpoint: mean survival time, dose: 37.5 mg/kg/injection, schedule: Q04DX003 (ip), vehicle: saline sonified 97 % of control | endpoint: mean survival time, dose: 75.0 mg/kg/injection, schedule: Q04DX003 (ip), vehicle: saline sonified 92 % of control | endpoint: mean survival time, dose: 150.0 mg/kg/injection, schedule: Q04DX003 (ip), vehicle: saline sonified 94 % of control

COC(=O)c1cc(Cl)cc(C(=O)OC)c1
inactive: [3] 95 % of control | [4] 88 % of control

Cc1c(C)c(OC(=O)c2ccccc2)c(Br)c(C)c1OC(=O)c1ccccc1
inactive: [5] 91 % of control | [3] 100 % of control | [6] 100 % of control | [4] 100 % of control | [7] 100 % of control | [8] 100 % of control

Cc1cc(C)c(N)c(Br)c1C
inactive: [3] 102 % of control | [9] 103 % of control | [4] 97 % of control | [10] 100 % of control | [8] 104 % of control | [11] 101 % of control

O=c1[nH]c(NCCCCc2ccccc2)c(Br)c(=O)[nH]1
inactive: [5] 91 % of control

CSc1nc2[nH]c(C)cc2c(=O)[nH]1
inactive: endpoint: median survival time, dose: 50.0 mg/kg/injection, schedule: Q01DX005 (ip), vehicle: saline 102 % of control | endpoint: median survival time, dose: 100.0 mg/kg/injection, schedule: Q01DX005 (ip), vehicle: saline 95 % of control | endpoint: median survival time, dose: 200.0 mg/kg/injection, schedule: Q01DX005 (ip), vehicle: saline 92 % of control

CCS(=O)(=O)/C=C(\I)C(C)(C)C
inactive: [3] 97 % of control | [9] 98 % of control | [4] 102 % of control | [10] 102 % of control | [8] 100 % of control | [11] 95 % of control

CCN(CC)CCN1CC2CC=CCC2C1 (stereo not drawn)
inactive: [3] 96 % of control

CCCCNC(=O)C(C)S(=O)(=O)c1ccc(C)cc1 (stereo not drawn)
inactive: [3] 103 % of control | [4] 97 % of control | [8] 95 % of control

CCCCCCCCCCCc1n(Cc2ccccc2)c2ccccc2[n+]1C
inactive: endpoint: mean survival time, dose: 0.25 mg/kg/injection, schedule: Q01DX009 (ip), vehicle: saline 117 % of control | endpoint: mean survival time, dose: 0.25 mg/kg/injection, schedule: Q04DX003 (ip), vehicle: saline 102 % of control | endpoint: mean survival time, dose: 0.5 mg/kg/injection, schedule: Q01DX009 (ip), vehicle: saline 110 % of control | endpoint: mean survival time, dose: 0.5 mg/kg/injection, schedule: Q04DX003 (ip), vehicle: saline 104 % of control | endpoint: mean survival time, dose: 1.0 mg/kg/injection, schedule: Q01DX009 (ip), vehicle: saline 121 % of control | endpoint: mean survival time, dose: 1.0 mg/kg/injection, schedule: Q04DX003 (ip), vehicle: saline 106 % of control

CN(CC(=O)O)Cc1ccccc1
inactive: [1] 102 % of control | [2] 100 % of control | endpoint: mean survival time, dose: 200.0 mg/kg/injection, schedule: Q04DX003 (ip), vehicle: saline 108 % of control

CCC(=O)Nc1cccc(OC(=O)NC(C)(C)CC(C)(C)C)c1
inactive: [5] 98 % of control | [6] 98 % of control | [7] 100 % of control

O=C(COc1cc(Cl)c(Cl)cc1Cl)OCCN(CCOC(=O)COc1cc(Cl)c(Cl)cc1Cl)C(=O)COc1ccc(Cl)cc1
inactive: [12] 93 % of control | [13] 96 % of control | endpoint: mean survival time, dose: 400.0 mg/kg/injection, schedule: Q04DX003 (ip), vehicle: other 107 % of control

CC(=O)Nc1ccc(-c2c(NCCO)ncc3ccccc23)cc1
inactive: endpoint: mean survival time, dose: 25.0 mg/kg/injection, schedule: Q04DX003 (ip), vehicle: other 104 % of control | endpoint: mean survival time, dose: 50.0 mg/kg/injection, schedule: Q04DX003 (ip), vehicle: other 98 % of control | [12] 98 % of control | [13] 104 % of control

COc1cc(OC)c(NC(=O)C(=O)Nc2cc(Cl)c(OC)cc2OC)cc1Cl
inactive: endpoint: mean survival time, dose: 50.0 mg/kg/injection, schedule: Q01DX009 (ip), vehicle: saline with Tween-80 88 % of control | [3] 88 % of control | [4] 91 % of control

[I][Pt+2][I].[NH-]c1ccc(F)cc1.[NH-]c1ccc(F)cc1
inactive: endpoint: mean survival time, dose: 3.13 mg/kg/injection, schedule: Q04DX003 (ip), vehicle: distilled water + Tween-80 108 % of control | endpoint: mean survival time, dose: 6.25 mg/kg/injection, schedule: Q04DX003 (ip), vehicle: distilled water + Tween-80 108 % of control | endpoint: mean survival time, dose: 12.5 mg/kg/injection, schedule: Q04DX003 (ip), vehicle: distilled water + Tween-80 98 % of control | endpoint: mean survival time, dose: 25.0 mg/kg/injection, schedule: Q04DX003 (ip), vehicle: distilled water + Tween-80 101 % of control | endpoint: mean survival time, dose: 50.0 mg/kg/injection, schedule: Q04DX003 (ip), vehicle: distilled water + Tween-80 108 % of control | endpoint: mean survival time, dose: 100.0 mg/kg/injection, schedule: Q04DX003 (ip), vehicle: distilled water + Tween-80 87 % of control

NC(=S)N/N=C/c1nccc2ccccc12
inactive: endpoint: mean survival time, dose: 6.25 mg/kg/injection, schedule: Q01DX010 (oral), vehicle: saline 97 % of control | endpoint: mean survival time, dose: 15.0 mg/kg/injection, schedule: Q01DX006 (iv), vehicle: saline 100 % of control | endpoint: mean survival time, dose: 25.0 mg/kg/injection, schedule: Q01DX009 (sc), vehicle: saline 97 % of control | endpoint: mean survival time, dose: 30.0 mg/kg/injection, schedule: Q01DX006 (iv), vehicle: saline 100 % of control | endpoint: mean survival time, dose: 50.0 mg/kg/injection, schedule: Q01DX001 (sc), vehicle: saline 98 % of control | endpoint: mean survival time, dose: 50.0 mg/kg/injection, schedule: Q01DX009 (sc), vehicle: saline 103 % of control | endpoint: mean survival time, dose: 75.0 mg/kg/injection, schedule: Q01DX009 (ip), vehicle: saline with Tween-80 110 % of control | endpoint: mean survival time, dose: 168.0 mg/kg/injection, schedule: Q01DX Z (ip), vehicle: saline 86 % of control | endpoint: mean survival time, dose: 200.0 mg/kg/injection, schedule: Q01DX001 (sc), vehicle: saline 100 % of control | endpoint: mean survival time, dose: 360.0 mg/kg/injection, schedule: Q01DX001 (ip), vehicle: saline 110 % of control

O=C(O)CCC(C(=O)O)c1ccccc1 (stereo not drawn)
inactive: endpoint: mean survival time, dose: 75.0 mg/kg/injection, schedule: Q01DX001 (ip), vehicle: saline 98 % of control | endpoint: mean survival time, dose: 150.0 mg/kg/injection, schedule: Q01DX001 (ip), vehicle: saline 101 % of control | endpoint: mean survival time, dose: 300.0 mg/kg/injection, schedule: Q01DX001 (ip), vehicle: saline 104 % of control

COC1CC(C)C(OC)c2cc(O)cc(c2O)NC(=O)/C(C)=C/C=C\C(C)C(OC(N)=O)/C(C)=C\C(C)C1OC (stereo not drawn)
inactive: endpoint: median survival time, dose: 1.25 mg/kg/injection, schedule: Q01DX009 (ip), vehicle: saline + alcohol 105 % of control | endpoint: median survival time, dose: 2.5 mg/kg/injection, schedule: Q01DX009 (ip), vehicle: saline + alcohol 105 % of control | endpoint: median survival time, dose: 5.0 mg/kg/injection, schedule: Q01DX009 (ip), vehicle: saline + alcohol 105 % of control | endpoint: median survival time, dose: 10.0 mg/kg/injection, schedule: Q01DX009 (ip), vehicle: saline + alcohol 110 % of control | endpoint: median survival time, dose: 20.0 mg/kg/injection, schedule: Q01DX009 (ip), vehicle: saline + alcohol 107 % of control

Source: PubChem BioAssay AID256 (DTP/NCI, 2004)
